# Laboratory results published in patent publication US9211278B2, “Composition containing arylnaphthalene lignan derivative for preventing and/or treating dementia” (KOREA INSTITUTE OF SCIENCE AND TECHNOLOGY, priority 2012, dated 2015).
# Columns and labels:
# [1] = test system: beta-amyloid (Aβ40, Aβ42) formation; test: Beta-amyloid (Aβ40, Aβ42) formation, ELISA, in APP-transfected HeLa cells; format: cell-based, human; conditions: HeLa-APP cells, various concentrations (FIGS. 1, 2, 6)
# Procedure: To test the inhibitory effect of Justicidin A (C1) obtained in Example 2 on the beta-amyloid formation, HeLa cell line transfected with the amyloid precursor protein (APP) driven from human was cultured in DMEM solution (Cat. #11995, Gibco, USA) for use. The cell line was received from Prof. Tae-Wan Kim at Department of Pathology, Columbia University Medical Center, New York, N.Y. 10032, USA.
# Specifically, the Justicidin A of Example 2 was added into the cell line culture at the amount indicated in FIG. 1, and then the produced amount of be-amyloid (Aβ40, Aβ42 was measured. Human β-Amyloid[1-40](Aβ40), Human β-Amyloid [1-42](Aβ42) Colorimetric ELISA kit (#KHB3482 and #KHB3442; BioSource International, Inc., U.S.A.) were used to quantify two types of beta-amyloid (Aβ40, Aβ42).
# The 5-methoxyJusticidin A (C2) of Example 2 was added into the cell line culture at the amount indicated in FIG. 2, and then the produced amount of be-amyloid was measured according to the method of Example 1.1. The group which was not treated with 5-methoxyjusticidin A was used as a negative control.
# The compounds were used at the amount of FIG. 6, and measured for the beta-amyloid (Aβ40, Aβ42) formation according to the same method of Experimental Example <1-1>. The group treated with Justicidin A(C1) was a positive control and the group with no treatment was a negative control.
# [2] = test system: alpha-secretase product (sAPPα); test: Alpha-secretase product (sAPPα) production, Western blotting; format: cell-based, human; conditions: 8 hours, concentrations of FIG. 5
# Procedure: The test result confirmed that Justicidin A (C1) obtained in Example 2 and 5-methoxyJusticidin A increased alpha-secretase product (sAPPα). Specifically, the produced amount of sAPPα was measured by treating the cultured cell line (the HeLa cell line transfected with the amyloid precursor protein (APP) driven from human) with Justicidin A (S62-C1) or 5-methoxyJusticitdin A (S62-C2) at a concentration of FIG. 5, culturing it for 8 hours, and measuring the produced amount of sAPPα according to the Western blotting. The negative control was the group with no treatment of Justicidin A or 5-methoxyJusticidin A.
# transferrin endocytosis = test: Transferrin endocytosis (confocal microscopy); format: cell-based, human; conditions: 1 uM, 10, 30, 60 min at 37° C.
# Procedure: The reduced endocytosis rate may be caused by total reduction of endocytosis other than the specific reduction of APP endocytosis rate, because many proteins other than APP can be modified to include the O-glycosylation and the like, by Justicidin A. Thus, the effect of Justicidin A to transferrin, internalized by clathrin-dependent endocytosis like APP was measured, in order to identify selectivity of reducing of APP endocytosis rate by O-glycosylation.
# 5×10^5 cells of HeLa cell line transfected with amyloid precursor protein (APP) same as above, incubated for 24 hrs, 1 uM Justicidin A treated at 4° C. for 45 min. Then, transferrin was fluorescent-labeled by treating Alexa Fluor 488 conjugated transferrin (25 ug/ml concentration, #T13342, Invitrogen). Transferrin endocytosis was progressed depending on the incubation time 10, 30, 60 min at 37° C., then remained transferrin was washed out by treating pH 5.5 buffer (0.1M sodium acetate, 0.05M NaCl) to cell surface for 5 min
# Intracellular location of transferrin was measured by confocal microscopy (LSM510, Zeiss, Germany) at 488 nm.
# [3] = test system: PC12 cell treated with Aβ25-35; test: Protection against cellular toxicity induced by Aβ25-35; format: cell-based; conditions: 30 uM Aβ25-35, 48 hrs
# Procedure: To identify the protecting effect against cellular toxicity induced by Aβ, PC12 cell was treated with Justicidin A and Aβ25-35 and measured cell viability. More particularly, 1.5×10^4 cells of PC12 were seeded to each well of 96-well plate, and incubated for 24 hrs. Then, the plate was treated with various concentrations of Justicidin A 30 min, treated 30 uM Aβ25-35, and incubated for 48 hrs. Cell viability was measured by Cell counting kit-8 to show the result FIG. 12b.
# Aβ42 = target: T1, Aβ42 (Homo sapiens, UniProt P05067); test: Aβ fibril formation, Thioflavin T (ThT) fluorescence assay; format: biochemical
# T1 construct: Aβ42 of 42 amino acids
# T1 sequence (P05067 672-713 limits assumed): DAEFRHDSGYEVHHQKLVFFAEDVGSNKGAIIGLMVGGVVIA
# Procedure: Fibril formation by concentrated Aβ is Alzheimer's representative symptom and has been focused on recently. The concentrated Aβ was measured by Thioflavin T (ThT) fluorescence assay, as chemical process was artificially generated.
# For formation of Aβ fibril, Aβ42 was melt in 1,1,1,3,3,3-hexafluoro-2-propanol (HFIP) up to 1 mg/ml, then injected to 96-well plate, the concentration of Aβ42 was 10 uM each well, HFIP was evaporated shortly before the beginning of the experiment. Various concentrations of Justicidin A and a certain amount of 5 uM ThT were added, and Fluorescence intensity was measured at various times by Tecan infinite M1000 microplate reader (Tecan, Switzerland).
# male ICR mouse = test: Novel object recognition test, scopolamine-impaired memory model; format: in vivo; conditions: oral, 10 mg/kg and 20 mg/kg; compared with 2 mg/kg Donepezil
# Procedure: The male ICR mouse was 5 to 6-week age (25˜30 g of body weight) (Orientbio Inc., Seougnam, Republic of Korea), and was raised with solid feed and tap water for 1 week before being used for test. For 3 days before the test, each mouse to get adjusted to Arena (grey mat acryl material, 50 cm×50 cm×60 cm) went freely into the Arena for 10 minutes per a day.
# At a first day, the normal control group and the group administered by the scopolamine were fed with 5% (v/v) DMSO-saline, the test group was orally administered by 1, 5, 10 and 20 mg/kg/10 ml of Justicidin A (C1) in 5% DMSO-Saline, and the comparative group was administered with 2 mg/kg/10 ml of Donepezil (brand name: Aricept, Eisai) being commercially available as a drug for treating an dementia of the Alzheimer's type. After 30 minutes, the groups were intraperitoneally injected by scopolamine (Sigma-Aldrich Chemical Co., St Louis, USA) at 1 mg/kg/10 ml. […]
# At the second day, the mice were dropped into the Arena without treatment of additional drug and scopolamine. […] Entire test was automatically recorded and analyzed with Noldus Ethovision 7.0 program (Noldus Information Technology, USA). The time when the mice sought the object in 3 minutes after dropping two objects at second day of test were measured and calculated as Memory Index (%, ratio of time for Novel object recognition to entire time for recognition). […]
structure (smiles),measurement,setting,value
COc1cc2c(OC)c3c(c(-c4ccc5c(c4)OCO5)c2cc1OC)C(=O)OC3 [Justicidin A],"inhibition of beta-amyloid (Aβ40, Aβ42) formation",[1],"inhibited the beta-amyloid (Aβ40, Aβ42) formation at a concentration-dependent manner"
same,formation of alpha-secretase product (sAPPα),[2],activated the formation of alpha-secretase product (sAPPα)
same,transferrin endocytosis,transferrin endocytosis,no effect of Justicidin A to transferrin endocytosis
same,toxicity induced by Aβ25-35,[3],reduced the toxicity induced by Aβ25-35 in a concentration-dependent manner
same,inhibition at 5 µM,"Aβ42; 5 uM, read-out: inhibition of formation of Aβ fibril compared to the control group",52%
same,inhibition of formation of Aβ fibril,"Aβ42; various concentrations, up to 36 hrs",inhibited the formation of Aβ fibril in a concentration-dependent manner
same,memory and learning ability (Memory Index),male ICR mouse,showed high memory and learning ability
